According to patent US9833497B2, “Human originated EGF domain proteins and use of the same” (CHENGDU SOURCEBIO LIMITED-LIABILITY COMPANY, priority 2013, dated 2017):

Assays:
Assay type in all cases: cell-based
[1] = system: E. coli DH5α; test: Antibacterial activity: MIC and growth curve against E. coli DH5α in 96-well plate; settings: minimal inhibitory concentration against E. coli DH5α; 96-well plate, 5×10^5 CFU/mL, 37° C., judged after 8 h
In short: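 MIC taken as lowest protein level with no bacterial growth, tracked by A600 every 30 min during 37 °C, 175 rpm culture. Two-fold protein series 50-12.5 μg/mL final, triplicate wells, against 5×10^5 CFU/mL of LB-washed mid-log cells.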

[2] = system: Enterobacter cloacae; test: MIC against Gram-negative bacteria: Enterobacter cloacae
In short: (§1)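 MIC = lowest concentration of recombinant protein showing no growth. Test proteins: purified human-derived EGF domain proteins, two-fold dilution series, three wells per concentration; inoculum 5×10^5 CFU/mL in LB; incubation 37° C with shaking at 175 rpm.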

[3] = system: Pseudomonas aeruginosa; test: MIC against Gram-negative bacteria: Pseudomonas aeruginosa
In short: as §1

[4] = system: E. coli BL21; test: MIC against Gram-negative bacteria: E. coli BL21
In short: as §1

[5] = system: Aeromonas hydrophila; test: MIC against Gram-negative bacteria: Aeromonas hydrophila
In short: as §1

[6] = system: Klebsiella pneumonia; test: MIC against Gram-negative bacteria: Klebsiella pneumonia
In short: as §1

[7] = system: Serratia marcescens; test: MIC against Gram-negative bacteria: Serratia marcescens
In short: as §1

[8] = system: Proteus vulgaris; test: MIC against Gram-negative bacteria: Proteus vulgaris
In short: as §1

[9] = system: Moraxella catarrhalis; test: MIC against Gram-negative bacteria: Moraxella catarrhalis
In short: as §1

[10] = system: Proteus mirabilis; test: MIC against Gram-negative bacteria: Proteus mirabilis
In short: as §1

[11] = system: Citrobacter diversus; test: MIC against Gram-negative bacteria: Citrobacter diversus
In short: as §1

[12] = 96-well plate, 5×10^5 CFU/mL, 37° C., 10 h
[13] = E. cloacae, 10 h cultivation at 37° C., 5×10^5 CFU/mL
[14] = P. aeruginosa, 10 h cultivation at 37° C., 5×10^5 CFU/mL
[15] = E. coli BL21, 10 h cultivation at 37° C., 5×10^5 CFU/mL
[16] = A. hydrophila, 10 h cultivation at 37° C., 5×10^5 CFU/mL
[17] = K. pneumonia, 10 h cultivation at 37° C., 5×10^5 CFU/mL
[18] = S. marcescens, 10 h cultivation at 37° C., 5×10^5 CFU/mL
[19] = P. vulgaris, 10 h cultivation at 37° C., 5×10^5 CFU/mL
[20] = M. catarrhalis, 10 h cultivation at 37° C., 5×10^5 CFU/mL
[21] = P. mirabilis, 10 h cultivation at 37° C., 5×10^5 CFU/mL
[22] = C. diversus, 10 h cultivation at 37° C., 5×10^5 CFU/mL

Substance | MIC [1] [µg/mL] | MIC (μg/mL) E. cloacae [2, 13] [µg/mL] | MIC (μg/mL) P. aeruginosa [3, 14] [µg/mL] | MIC (μg/mL) E. coli BL21 [4, 15] [µg/mL] | MIC (μg/mL) A. hydrophila [5, 16] [µg/mL] | MIC (μg/mL) K. pneumonia [6, 17] [µg/mL] | MIC (μg/mL) S. marcescens [7, 18] [µg/mL] | MIC (μg/mL) P. vulgaris [8, 19] [µg/mL] | MIC (μg/mL) M. catarrhalis [9, 20] [µg/mL] | MIC (μg/mL) P. mirabilis [10, 21] [µg/mL] | MIC (μg/mL) C. diversus [11, 22] [µg/mL] | also measured
PRT665 (GIDRCAAGATNVCGPGTCVNLPDGYRCVCSPGYQLHPSQAYCT; listed as Homo sapiens) | 25 |  |  |  |  |  |  |  |  |  |  | MIC E. cloacae [2, 12]: 25 µg/mL; MIC P. aeruginosa [3, 12]: 25 µg/mL; MIC E. coli BL21 [4, 12]: 50 µg/mL; MIC A. hydrophila [5, 12]: 50 µg/mL; MIC K. pneumonia [6, 12]: 12.5 µg/mL; MIC S. marcescens [7, 12]: 25 µg/mL; MIC P. vulgaris [8, 12]: 50 µg/mL; MIC M. catarrhalis [9, 12]: 12.5 µg/mL; MIC P. mirabilis [10, 12]: 25 µg/mL; MIC C. diversus [11, 12]: 25 µg/mL
PRT224 (DVNECDMGAPCEQRCFNSYGTFLCRCHQGYELHRDGFSCS; listed as Homo sapiens) | 25 | 12.5 | 25 | 12.5 | 12.5 | 12.5 | 50 | 12.5 | 12.5 | 12.5 | 12.5 | 
PRT1012 (APKGCGPPSPCLYNGSCSETTGLGGPGFRCSCPHSSPGPRCQ; listed as Homo sapiens) | 12.5 |  |  |  |  |  |  |  |  |  |  | MIC ([2]; E. cloacae, 10 h cultivation at 37° C.): 50 µg/mL; MIC ([3]; P. aeruginosa, 10 h cultivation at 37° C.): 12.5 µg/mL; MIC ([4]; E. coli BL21, 10 h cultivation at 37° C.): 50 µg/mL; MIC ([5]; A. hydrophila, 10 h cultivation at 37° C.): 12.5 µg/mL; MIC ([6]; K. pneumonia, 10 h cultivation at 37° C.): 12.5 µg/mL; MIC ([7]; S. marcescens, 10 h cultivation at 37° C.): 12.5 µg/mL; MIC ([8]; P. vulgaris, 10 h cultivation at 37° C.): 25 µg/mL; MIC ([9]; M. catarrhalis, 10 h cultivation at 37° C.): 12.5 µg/mL; MIC ([10]; P. mirabilis, 10 h cultivation at 37° C.): 12.5 µg/mL; MIC ([11]; C. diversus, 10 h cultivation at 37° C.): 50 µg/mL
PRT828 (HGAGCQGLCWCQHGAPCDPISGRCLCPAGFHGHFCE; listed as Homo sapiens) | 12.5 | 12.5 | 12.5 | 50 | 50 | 50 | 25 | 12.5 | 50 | 25 | 12.5 | 
PRT1497 (KPVCEPGCGAHGTCHEPNKCQCQEGWHGRHCN; listed as Homo sapiens) | 50 |  |  |  |  |  |  |  |  |  |  | MIC (μg/mL) E. cloacae ([2]; Enterobacter cloacae, 96-well plate, 5×10^5 CFU/mL, 37° C., 10 h): 25 µg/mL; MIC (μg/mL) P. aeruginosa ([3]; Pseudomonas aeruginosa, 96-well plate, 5×10^5 CFU/mL, 37° C., 10 h): 12.5 µg/mL; MIC (μg/mL) E. coli BL21 ([4]; E. coli BL21, 96-well plate, 5×10^5 CFU/mL, 37° C., 10 h): 25 µg/mL; MIC (μg/mL) A. hydrophila ([5]; Aeromonas hydrophila, 96-well plate, 5×10^5 CFU/mL, 37° C., 10 h): 12.5 µg/mL; MIC (μg/mL) K. pneumonia ([6]; Klebsiella pneumonia, 96-well plate, 5×10^5 CFU/mL, 37° C., 10 h): 50 µg/mL; MIC (μg/mL) S. marcescens ([7]; Serratia marcescens, 96-well plate, 5×10^5 CFU/mL, 37° C., 10 h): 12.5 µg/mL; MIC (μg/mL) P. vulgaris ([8]; Proteus vulgaris, 96-well plate, 5×10^5 CFU/mL, 37° C., 10 h): 50 µg/mL; MIC (μg/mL) M. catarrhalis ([9]; Moraxella catarrhalis, 96-well plate, 5×10^5 CFU/mL, 37° C., 10 h): 50 µg/mL; MIC (μg/mL) P. mirabilis ([10]; Proteus mirabilis, 96-well plate, 5×10^5 CFU/mL, 37° C., 10 h): 12.5 µg/mL; MIC (μg/mL) C. diversus ([11]; Citrobacter diversus, 96-well plate, 5×10^5 CFU/mL, 37° C., 10 h): 25 µg/mL
PRT188 (HVSDCARNPCAHGGTCHDLENGLMCTCPAGFSGRRCE; listed as Homo sapiens) | 12.5 | 50 | 50 | 12.5 | 12.5 | 12.5 | 12.5 | 25 | 25 | 12.5 | 12.5 | 
